Where two headings read alike, the source gives them in different places. Ends that are not written are not given here.
What was measured:
[1] = tested on: Adjuvant Induced Arthritis in Rats; test: Adjuvant-induced arthritis model in rats (paw weight, inhibition of inflammation); type: in vivo, male Sprague-Dawley rats
Procedure: Adjuvant-induced arthritis responds to both steroids and non-steroids. The degree of inflammation will be assessed by measuring differences in foot weight and/or the foot volume.
(§1) Rats weighting between 150-200 g were purchased from Animal Technologies Ltd., Kent, Wash. They were male Sprague-Dawley rats. The animals were kept individually in stainless steel cages with free access to water and feed (Harlan Teklan Rodent Diet). The light cycle was maintained at 12 hours light and 12 hours dark. The temperature was maintained at 22° C.±3° C. with a relative humidity of 40 to 70%.
[…] The test compound and hydrocortisone were given by gavage.
Male Sprague-Dawley rats (150-200 g) were sensitized by injecting Fruend's complete adjuvant (0.5% suspension of killed mycobacterium tuberculosis (H37RA, Difco, in mineral oil)). A 0.1 ml aliquot was administered intradermally at a plantar site on the right hind leg of each rat.
The test materials were given orally (by gavage) to each of 5 rats per treatment group once per day for 10 days. […]
(§2) The left hind paw was measured just before sensitization and again on Day 10. The plantar edema inhibitory rate and the body weight gain rate was determined by comparison with the non-sensitized rat groups.
The paw weights for each group were averaged. Anti-inflammatory activity was determined by comparing paw weights calculated as follows: […]

[2] = Body weight gains of rats in the adjuvant-induced arthritis study; type: in vivo, male Sprague-Dawley rats
Procedure: as §1
The test materials were given orally (by gavage) to each of 5 rats per treatment group once per day for 10 days. Administration of the test materials was initiated on the day of sensitization.
as §2

[3] = mice
Procedure: One tenth (0.1 ml) of the above suspension is inoculated into the left hind leg muscle (hamstring muscle mass) of each mouse. The inoculated mice are placed into one large cage and then randomly segregated into groups of five mice. The mice are housed in shoe box cages on wood shavings with free access to water and laboratory chow. The mice are weighed on the day of inoculation, on day 7, day 12, at time of sacrifice.

| Compound | % Inhibition ([1]; 10 mg/kg by gavage once per day for 10 days, adjuvant-induced inflammation, rats) | Raw Paw Weight ([1]; rats sensitized with Freund's complete adjuvant, oral gavage once per day for 10 days, Day 10, dose for this column not stated) | Body Weight Gains of Rats ([2]; 10 mg/kg by gavage once per day for 10 days) | Body Weight Gains of Rats ([2]; 1 mcg/kg by gavage once per day for 10 days) | Body Weight Gains of Rats ([2]; 10 mcg/kg by gavage once per day for 10 days) | weight loss (in words) ([2]; rats, 10 mcg/kg and 1 mcg/kg by gavage for 10 days) | Average Weight Gain ([3]; 1 mcg/kg dose by gavage for 11 days) | Average Weight Gain ([3]; 10 mcg/kg dose by gavage for 11 days) | weight gain associated with administration versus control (in words) ([3]; gavage for 11 days) |
| --- | --- | --- | --- | --- | --- | --- | --- | --- | --- |
| C[C@]12CCC(=O)C=C1CC[C@@H]1[C@@H]2[C@@H](O)C[C@@]2(C)[C@H]1CC[C@]2(O)C(=O)CO [Hydrocortisone] | 95.6% | 0.69 g | 22.2 | – | – | – | – | – | – |
| YGSRS [Peptide, tyrosine-glycine-serine-arginine-serine] | – | – | – | 40.1 | 39.4 | without inducing weight loss | 1.85 g | 1.87 g | comparable to the control |

Source: patent publication US7390874B2 (Kuboyama Bio Ken, Inc., priority 2003, dated 2008)
